Assay results from article PMC4767940 (PLoS ONE, 2016).

How the values were obtained:
[1] = test system: CD8+ T cells; details: cited from earlier work
[2] = molecular target: H-2D^b on the surface of RMA-S cells (mouse (endogenous in RMA/S)); assay: flow cytometry on cells

| Compound | formation of memory CD8+ T cell responses [1] | half-life of the peptide on H-2D^b [2] [h] |
| --- | --- | --- |
| O=CC[C@@H](O)[C@H](O)[C@H](O)CO [2-deoxyglucose] | augments the formation of memory CD8+ T cell responses |  |
| GP33-41 peptide (wildtype GP33 epitope of LCMV) |  | > 5 |
